# Data as given in ChEMBL document CHEMBL3124773, “Stereoselective preparation of pyridoxal 1,2,3,4-tetrahydro-β-carboline derivatives and the influence of their absolute and relative configuration on the proliferation of the malaria parasite Plasmodium falciparum” (Bioorg Med Chem, 2014).
# Tested on: Plasmodium falciparum
# Assay: Antiplasmodial activity against Plasmodium falciparum 3D7 infected in human erythrocytes after 48 hrs by [3H]hypoxanthine incorporation assay
# Assay type: functional, organism-based
row,SMILES,IC50 [µM]
1,COC(=O)[C@@H]1Cc2c([nH]c3ccccc23)[C@@H](c2c(CO)cnc(C)c2O)N1,22
2,COC(=O)C1Cc2c([nH]c3ccccc23)C(c2c(CO)cnc(C)c2O)N1 (stereo not given),14
3,COC(=O)[C@@H]1Cc2c([nH]c3ccccc23)[C@H](c2c(CO)cnc(C)c2O)N1,91

# Next, values leading:
row,IC50 [µM],SMILES
1,108,COC(=O)[C@H]1Cc2c([nH]c3ccccc23)[C@@H](c2c(CO)cnc(C)c2O)N1
2,8,COC(=O)[C@H]1Cc2c([nH]c3ccccc23)[C@H](c2c(CO)cnc(C)c2O)N1
